Consider twelve molecules from patent publication US20250368666A1, “INDAZOLE COMPOUNDS” (TYRA BIOSCIENCES, INC., priority 2022, published 2025).

In test [1] the test system is MDA-MB-453 cell line (FGFR4-Y367C). Kind of test: Cancer cell line cell viability assay (Cell Titer-Glo), 120 hr. Conditions: Homo sapiens. It counts as cell-based. Summed up:
(§1)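 ATP-based luminescence (Cell Titer-Glo 2.0) measured viability after 72 h (KG-1, RT112/84) or 120 h (MDA-MB-453, HuH7) compound exposure. Dosing was nine 4-fold steps starting at 3 μM, in triplicate, on overnight-plated cells. IC50 came from a variable-slope 4-parameter fit of % DMSO control.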

The next test deals with T1, FGFR4 (Homo sapiens, UniProt P22455).
T1 construct: made in house; host or cells: E. coli (BL21-derived), T7 phage
T1 sequence (P22455 22-802): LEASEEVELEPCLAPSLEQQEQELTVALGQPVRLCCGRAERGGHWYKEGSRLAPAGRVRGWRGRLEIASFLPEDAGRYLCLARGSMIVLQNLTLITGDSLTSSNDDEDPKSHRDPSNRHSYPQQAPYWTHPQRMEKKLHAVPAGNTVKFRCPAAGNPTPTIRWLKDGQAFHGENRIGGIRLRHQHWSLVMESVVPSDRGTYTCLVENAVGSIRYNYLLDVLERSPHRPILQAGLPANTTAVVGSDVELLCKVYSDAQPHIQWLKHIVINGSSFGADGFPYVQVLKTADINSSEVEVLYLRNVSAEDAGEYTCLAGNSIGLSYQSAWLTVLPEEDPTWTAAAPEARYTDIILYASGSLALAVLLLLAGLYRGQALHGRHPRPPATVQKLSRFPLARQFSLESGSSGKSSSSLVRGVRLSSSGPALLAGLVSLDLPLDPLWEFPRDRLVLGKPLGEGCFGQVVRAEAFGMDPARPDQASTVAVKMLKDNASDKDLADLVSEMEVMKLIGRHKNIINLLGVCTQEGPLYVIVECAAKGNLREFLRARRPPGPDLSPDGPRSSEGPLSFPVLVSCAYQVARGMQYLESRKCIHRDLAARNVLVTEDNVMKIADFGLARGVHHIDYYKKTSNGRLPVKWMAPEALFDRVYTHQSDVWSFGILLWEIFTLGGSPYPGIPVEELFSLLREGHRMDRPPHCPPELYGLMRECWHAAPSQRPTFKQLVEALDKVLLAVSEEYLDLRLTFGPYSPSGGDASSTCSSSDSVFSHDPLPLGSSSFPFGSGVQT
Put plainly: Kinase binding assay (kinase-tagged T7 phage, affinity beads, qPCR), Kd. The settings on record: read-out: FGFR4 (Kd nM). The essentials: (§2)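 Competition binding; kinase-tagged T7 phage lysate vs immobilised biotinylated ligand on streptavidin beads, 0.9% DMSO final. 11-pt 3-fold dilutions, 3 DMSO controls. qPCR of eluted kinase; Kd by Hill fit, slope −1.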

A further test addresses T2, FGFR3 (Homo sapiens, UniProt P22607).
T2 construct: made in house; host or cells: E. coli (BL21-derived), T7 phage
Described as above. Conditions: read-out: FGFR3 (Kd nM). The essentials: as §2

A further test deals with T3, FGFR2 (Homo sapiens, UniProt P21802).
T3 construct: made in house; host or cells: E. coli (BL21-derived), T7 phage
T3 sequence (P21802 22-821): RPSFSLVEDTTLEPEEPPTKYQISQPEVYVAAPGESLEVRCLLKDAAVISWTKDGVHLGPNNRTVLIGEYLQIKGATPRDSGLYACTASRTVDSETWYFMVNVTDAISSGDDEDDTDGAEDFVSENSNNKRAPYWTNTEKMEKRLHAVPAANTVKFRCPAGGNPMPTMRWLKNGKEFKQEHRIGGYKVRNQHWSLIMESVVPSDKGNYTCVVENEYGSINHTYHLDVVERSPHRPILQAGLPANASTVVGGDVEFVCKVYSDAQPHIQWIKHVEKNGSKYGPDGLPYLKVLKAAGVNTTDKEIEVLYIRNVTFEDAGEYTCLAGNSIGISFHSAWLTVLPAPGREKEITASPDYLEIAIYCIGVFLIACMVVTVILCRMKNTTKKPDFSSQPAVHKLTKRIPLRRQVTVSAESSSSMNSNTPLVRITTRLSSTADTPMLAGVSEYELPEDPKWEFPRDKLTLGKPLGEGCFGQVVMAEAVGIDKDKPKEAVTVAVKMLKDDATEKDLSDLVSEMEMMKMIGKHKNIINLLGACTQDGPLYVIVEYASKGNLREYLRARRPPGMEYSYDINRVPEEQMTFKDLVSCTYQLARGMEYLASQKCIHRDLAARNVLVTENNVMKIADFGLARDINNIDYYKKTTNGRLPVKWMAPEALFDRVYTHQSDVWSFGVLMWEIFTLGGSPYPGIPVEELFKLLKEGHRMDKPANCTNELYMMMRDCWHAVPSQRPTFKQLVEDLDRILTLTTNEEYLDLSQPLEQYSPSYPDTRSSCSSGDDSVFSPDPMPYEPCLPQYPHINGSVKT
The test is described as above. The settings on record: read-out: FGFR2 (Kd nM). The essentials:
as §2

The target of the next test is T4, FGFR1 (Homo sapiens, UniProt P11362).
T4 construct: made in house; host or cells: E. coli (BL21-derived), T7 phage
T4 sequence (P11362 22-822): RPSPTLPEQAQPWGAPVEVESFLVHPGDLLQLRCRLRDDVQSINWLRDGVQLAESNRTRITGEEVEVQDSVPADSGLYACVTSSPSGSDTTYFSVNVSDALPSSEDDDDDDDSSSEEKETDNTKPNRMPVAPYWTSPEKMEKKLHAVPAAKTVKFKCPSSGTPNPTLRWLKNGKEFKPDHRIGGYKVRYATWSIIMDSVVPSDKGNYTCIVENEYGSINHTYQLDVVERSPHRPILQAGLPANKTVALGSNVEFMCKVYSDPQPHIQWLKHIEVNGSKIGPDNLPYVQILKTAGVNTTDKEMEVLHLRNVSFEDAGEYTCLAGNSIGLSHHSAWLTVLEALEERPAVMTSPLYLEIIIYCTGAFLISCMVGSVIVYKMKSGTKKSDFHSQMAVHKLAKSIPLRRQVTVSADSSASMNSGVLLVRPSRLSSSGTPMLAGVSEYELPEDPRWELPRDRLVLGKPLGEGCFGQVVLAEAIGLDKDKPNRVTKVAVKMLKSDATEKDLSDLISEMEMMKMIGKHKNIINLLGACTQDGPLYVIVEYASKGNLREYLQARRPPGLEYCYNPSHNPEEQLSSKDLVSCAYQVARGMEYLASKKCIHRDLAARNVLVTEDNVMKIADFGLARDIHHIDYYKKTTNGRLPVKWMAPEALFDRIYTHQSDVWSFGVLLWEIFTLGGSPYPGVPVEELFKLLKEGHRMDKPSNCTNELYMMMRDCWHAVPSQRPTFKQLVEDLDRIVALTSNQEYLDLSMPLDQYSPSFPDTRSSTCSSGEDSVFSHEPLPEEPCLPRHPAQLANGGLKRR
Described as above. Conditions: read-out: FGFR1 (Kd nM). Summed up:
as §2

The target of another test is T5, FGFR3 (V555M) (Homo sapiens, UniProt P22607, V555M).
T5 construct: made in house; host or cells: E. coli (BL21-derived), T7 phage
T5 sequence (P22607 23-806 V555M): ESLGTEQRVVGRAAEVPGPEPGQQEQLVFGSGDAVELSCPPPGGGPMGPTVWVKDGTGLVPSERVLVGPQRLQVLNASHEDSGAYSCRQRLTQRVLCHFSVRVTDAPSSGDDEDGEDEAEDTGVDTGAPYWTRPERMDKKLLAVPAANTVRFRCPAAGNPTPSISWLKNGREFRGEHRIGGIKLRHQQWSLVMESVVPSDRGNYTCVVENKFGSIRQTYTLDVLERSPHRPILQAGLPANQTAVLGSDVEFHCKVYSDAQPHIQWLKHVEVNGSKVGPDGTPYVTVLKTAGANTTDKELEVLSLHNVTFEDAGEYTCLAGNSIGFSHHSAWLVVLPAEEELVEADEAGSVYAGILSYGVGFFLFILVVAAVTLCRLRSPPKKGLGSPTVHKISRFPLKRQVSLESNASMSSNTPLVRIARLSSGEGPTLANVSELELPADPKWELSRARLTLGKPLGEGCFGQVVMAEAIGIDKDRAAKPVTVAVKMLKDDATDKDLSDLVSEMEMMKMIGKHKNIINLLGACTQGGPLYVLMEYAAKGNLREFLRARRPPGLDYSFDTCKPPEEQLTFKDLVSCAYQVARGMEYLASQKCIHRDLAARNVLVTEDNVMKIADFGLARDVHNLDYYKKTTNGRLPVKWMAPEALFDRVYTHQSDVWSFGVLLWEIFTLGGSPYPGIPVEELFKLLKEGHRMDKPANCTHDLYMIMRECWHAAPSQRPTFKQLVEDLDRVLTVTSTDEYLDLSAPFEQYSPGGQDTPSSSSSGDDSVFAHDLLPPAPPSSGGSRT
The test is described as above. The settings on record: V555M mutant; read-out: FGFR3 (V555M) (Kd nM). The essentials:
as §2

The subject of test [2] is RT112/84 cell line (FGFR3-fusion). Put plainly: Cancer cell line cell viability assay (Cell Titer-Glo), 72 hr. It counts as cell-based. Conditions: Homo sapiens, RT112/84, RT112/84 cell line (FGFR3-fusion). The essentials: as §1
A general note: In ATP-based viability assays light output follows the ATP content of the culture.

Test [3] has as its system KG-1 cell line (FGFR 1-fusion). Described as above. It is filed as cell-based. The settings on record: Homo sapiens, KG-1, KG-1 cell line (FGFR1-fusion). Summed up: as §1
The subject of test [4] is KATO-III cell line (FGFR2 amplification). Described as above. It counts as cell-based. Conditions: Homo sapiens, KATO III. Summed up:
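Intracellular ATP was measured by Cell Titer-Glo 2.0 luminescence after cells were incubated with compound dilutions (top 3 μM, 4-fold, 9 doses). Values were expressed relative to DMSO-treated cells and IC50 was calculated from a variable-slope dose-response curve.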

The structures appear in SMILES notation.

T2 sequence (P22607 23-806): as the sequence (P22607 23-806 V555M) above, with M533V counted along it

With `CC(C)CNC1(C)CN(c2ncc(-c3n[nH]c4ccc(O[C@H](C)c5c(Cl)cncc5Cl)cc34)cc2F)C1` [Example 138, 1-[5-[5-[(1R)-1-(3,5-dichloro-4-pyridyl)ethoxy]-1H-indazol-3-yl]-3-fluoro-2-pyridyl]-N-isobutyl-3-methyl-azetidin-3-amine], the IC50 fell in the range of 50 to 200 nM in [1], 0.1 to 50 nM in test [2], 50 to 200 nM in test [3] and 0.1 to 50 nM in test [4]. In addition, the dissociation constant (Kd) at FGFR4, at FGFR3, at FGFR2, at FGFR1 and on FGFR3 (V555M) was 1 to 50 nM each time.

With `C[C@@H](Oc1ccc2[nH]nc(-c3cnc(N4CC(C)(NCC(F)F)C4)c(F)c3)c2c1)c1c(Cl)cncc1Cl` [Example 155, 1-[5-[5-[(1R)-1-(3,5-dichloro-4-pyridyl)ethoxy]-1H-indazol-3-yl]-3-fluoro-2-pyridyl]-N-(2,2-difluoroethyl)-3-methyl-azetidin-3-amine], the half-inhibitory concentration (IC50) in test [1] was 50 to 200 nM; in test [2], 0.1 to 50 nM; in test [3], 50 to 200 nM; in test [4], 0.1 to 50 nM. In addition, the dissociation constant (Kd) at FGFR4, at FGFR3, at FGFR2, on FGFR1 and on FGFR3 (V555M) was 1 to 50 nM throughout.

Consider `C[C@@H](Oc1ccc2[nH]nc(-c3cnc(N4CC(C)(NCCS(C)(=O)=O)C4)c(F)c3)c2c1)c1c(Cl)cncc1Cl` [Example 166, (R)-1-(5-(5-(1-(3,5-Dichloropyridin-4-yl)ethoxy)-1H-indazol-3-yl)-3-fluoropyridin-2-yl)-3-methyl-N-(2-(methylsulfonyl)ethyl)azetidin-3-amine], for which the IC50 lay in the range of 0.1 to 50 nM in test [1], 0.1 to 50 nM in [2], 50 to 200 nM in [3] and 0.1 to 50 nM in test [4]. For the same molecule, the Kd at FGFR4, at FGFR3, at FGFR2, on FGFR1 and at FGFR3 (V555M) was 1 to 50 nM throughout.

Turning to `C[C@@H](Oc1ccc2[nH]nc(-c3cnc(N4CC(C)(N5CCS(=O)(=O)CC5)C4)c(F)c3)c2c1)c1c(Cl)cncc1Cl` [Example 167, 4-[1-[5-[5-[(1R)-1-(3,5-dichloro-4-pyridyl)ethoxy]-1H-indazol-3-yl]-3-fluoro-2-pyridyl]-3-methyl-azetidin-3-yl]-1,4-thiazinane 1,1-dioxide], the half-maximal inhibitory concentration (IC50) in [1] lay in the range of 0.1 to 50 nM; in test [2] it was 0.1 to 50 nM; in test [3], 50 to 200 nM; in test [4], 0.1 to 50 nM. The dissociation constant (Kd) on FGFR4, on FGFR3, on FGFR2, on FGFR1 and on FGFR3 (V555M) was 1 to 50 nM in each case.

As for `C[C@@H](Oc1ccc2[nH]nc(-c3ccc(N4CC(C)(CS(C)(=O)=O)C4)nc3)c2c1)c1c(Cl)cncc1Cl` [Example 181, (R)-5-(1-(3,5-dichloropyridin-4-yl)ethoxy)-3-(6-(3-methyl-3-((methylsulfonyl)-methyl)azetidin-1-yl)pyridin-3-yl)-1H-indazole], the IC50 fell in the range of 50 to 200 nM in [1], 0.1 to 50 nM in test [2], 50 to 200 nM in [3] and 0.1 to 50 nM in [4]. In addition, the Kd at FGFR4, on FGFR3, at FGFR2, on FGFR1 and on FGFR3 (V555M) was 1 to 50 nM each time.

Take `C[C@@H](Oc1ccc2[nH]nc(-c3cnc(N4CC(C)(NCP(C)(C)=O)C4)c(F)c3)c2c1)c1c(Cl)cncc1Cl` [Example 182, 1-[5-[5-[(1R)-1-(3,5-dichloro-4-pyridyl)ethoxy]-1H-indazol-3-yl]-3-fluoro-2-pyridyl]-N-(dimethylphosphorylmethyl)-3-methyl-azetidin-3-amine]: the IC50 in test [1] was 0.1 to 50 nM; in test [2], 0.1 to 50 nM; in [3], 200 to 1000 nM; in [4] it was 0.1 to 50 nM. Also, the dissociation constant Kd on FGFR4, on FGFR3, on FGFR2, at FGFR1 and on FGFR3 (V555M) was 1 to 50 nM in each case.

`C[C@H](Oc1ccc2[nH]nc(-c3cnc(N4CC(C)(CS(C)(=O)=O)C4)c(F)c3)c2c1)c1c(Cl)cncc1Cl` [Example 200, (S)-5-(1-(3,5-dichloropyridin-4-yl)ethoxy)-3-(5-fluoro-6-(3-methyl-3-((methyl-sulfonyl)meth-yl)azetidin-1-yl)pyridin-3-yl)-1H-indazole]: the IC50 in test [1], in test [2], in [3] and in test [4] was above 1000 nM each time. Moreover, the Kd at FGFR4 was 50 to 300 nM; on FGFR3 it was 50 to 300 nM; on FGFR2 it was above 1000 nM; at FGFR1 it was 300 to 1000 nM; on FGFR3 (V555M) it was 1 to 50 nM.

As to `CNC1(C)CN(c2ncc(-c3n[nH]c4ccc(O[C@@H](C)c5c(Cl)cncc5Cl)cc34)cc2F)C1` [Example 205, 1-[5-[5-[(1S)-1-(3,5-dichloro-4-pyridyl)ethoxy]-1H-indazol-3-yl]-3-fluoro-2-pyridyl]-N,3-dimethyl-azetidin-3-amine], the IC50 in test [1] is above 1000 nM; in test [2] it was above 1000 nM; in [3] it was above 1000 nM; in [4], 200 to 1000 nM. For the same molecule, the equilibrium dissociation constant (Kd) is 50 to 300 nM on FGFR4; 50 to 300 nM at FGFR3; 300 to 1000 nM at FGFR2; 50 to 300 nM at FGFR1; 1 to 50 nM on FGFR3 (V555M).

For `C[C@@H](Oc1ccc2[nH]nc(-c3cnc(N4C[C@@H](CS(C)(=O)=O)[C@@H]4C)c(F)c3)c2c1)c1c(Cl)cncc1Cl` [Example 206, 5-((R)-1-(3,5-dichloropyridin-4-yl)ethoxy)-3-(5-fluoro-6-((2S,3R)-2-methyl-3-((methylsulfonyl)methyl)azetidin-1-yl)pyridin-3-yl)-1H-indazole], the half-inhibitory concentration (IC50) is 50 to 200 nM in test [1], 0.1 to 50 nM in test [2], 50 to 200 nM in test [3] and 0.1 to 50 nM in [4]. The dissociation constant (Kd) on FGFR4, at FGFR3, at FGFR2, on FGFR1 and on FGFR3 (V555M) was 1 to 50 nM each time.

Turning to `C[C@@H]1[C@@H](CS(C)(=O)=O)CN1c1ncc(-c2n[nH]c3ccc(O[C@H](C)c4c(Cl)cncc4Cl)cc23)cc1F` [Example 207, 5-((R)-1-(3,5-dichloropyridin-4-yl)ethoxy)-3-(5-fluoro-6-((2R,3S)-2-methyl-3-((methylsulfonyl)methyl)azetidin-1-yl)pyridin-3-yl)-1H-indazole], the half-inhibitory concentration (IC50) in [1] lay in the range of 50 to 200 nM; in test [2], 0.1 to 50 nM; in test [3] it was 50 to 200 nM; in [4], 50 to 200 nM. Further, the Kd at FGFR4, on FGFR3, at FGFR2, on FGFR1 and at FGFR3 (V555M) was 1 to 50 nM throughout.

Consider `C[C@@H](Oc1ccc2[nH]nc(-c3ccc(N4CC(C)(NCC5CC5)C4)nc3)c2c1)c1c(Cl)cncc1Cl` [Example 219, (R)-N-(cyclo-propylmethyl)-1-(5-(5-(1-(3,5-dichloropyridin-4-yl)ethoxy)-1H-indazol-3-yl)pyridin-2-yl)-3-methylazetidin-3-amine], for which the half-maximal inhibitory concentration (IC50) in test [1] fell in the range of 50 to 200 nM; in [2], 0.1 to 50 nM; in test [3] it was 0.1 to 50 nM; in test [4], 0.1 to 50 nM. Also, the Kd on FGFR4, at FGFR3, at FGFR2, on FGFR1 and on FGFR3 (V555M) was 1 to 50 nM in each case.

Consider `CC(=O)N1CCN(C2(C)CN(c3ncc(-c4n[nH]c5ccc(O[C@H](C)c6c(Cl)cncc6Cl)cc45)cc3F)C2)CC1` [Example 220, 1-[4-[1-[5-[5-[(1R)-1-(3,5-dichloro-4-pyridyl)ethoxy]-1H-indazol-3-yl]-3-fluoro-2-pyridyl]-3-methyl-azetidin-3-yl]piperazin-1-yl]ethanone], for which the IC50 in test [1] was in the range of 50 to 200 nM; in test [2], 0.1 to 50 nM; in test [3], 50 to 200 nM; in test [4], 0.1 to 50 nM. Besides, the dissociation constant (Kd) on FGFR4, on FGFR3, at FGFR2, on FGFR1 and at FGFR3 (V555M) was 1 to 50 nM in each case.

By IC50 is commonly meant the concentration needed to halve the response being measured. In general, Kd refers to a measure of binding affinity in units of concentration.
